Laboratory results reported in patent US20040247607A1, “Use of surfactants to stabilize oocysts” (priority 1999, published 2004).

Tested on: oocysts
Experiment: Evaluation of naturally derived surfactants for decreasing and preventing oocyst aggregation
Text: In one aspect, the present invention provides a method for evaluating the ability of a surfactant to prevent aggregation of oocysts, sporocysts, and/or sporozoites. The method comprises adding a surfactant to a composition that comprises oocysts, sporocysts, sporozoites, or any combination thereof, at a concentration sufficient to prevent aggregation of the oocysts, sporocysts, and/or sporozoites (i.e. a test concentration). The resulting composition is then agitated, for example, by shaking manually or via an automatic shaker. As previously described, agitating the composition exposes the oocysts, sporocysts, and/or sporozoites to air or other gases, and promotes aggregation. After agitation, the composition is evaluated to determine whether any aggregation has occurred. Preferably, evaluation occurs by visually observing the composition for the presence of aggregated oocysts, sporocysts, and/or sporozoites. […]
In another aspect, the present invention provides a method for evaluating the ability of a surfactant to reduce oocyst, sporocyst, and/or sporozoite aggregation. […] Upon addition of the surfactant, the resulting composition is agitated, as previously described, and then evaluated to determine whether the aggregation has been reduced or eliminated entirely by addition of the surfactant. […]

Row | Substance | decreasing and preventing aggregation of oocysts
1 | serum albumin | effective
2 | casein | effective
